Values joined by “and” are separate entries in the source; they are usually repeats but may differ in a detail not shown here. Equal entries are not always repeated.

4 molecules from patent US8148355B2, “Phophylactic and therapeutic use of hydroxysteroids” (Hunter-Fleming Limited, priority 2001, dated 2012) can be followed below.

Data set [1] has as its system hippocampal CA1 pyramidal cells. The experiment in a line: Global cerebral ischaemia in rats, 4 vessel occlusion (intact CA1 neurons, Nissl staining). The data set is classed as in vivo, male Wistar rats. The procedure:
Cerebral ischaemia was induced by four-vessel-occlusion (4VO) in male Wistar rats (250-280 g). Both vertebral arteries were occluded by electrocauterization in pentobarbital anaesthesia (60 mg/kg i.p.). The animals were allowed to recover for 24 hours with free access to water but not food. The next day the carotid arteries were exposed under 2% halothane in 30% oxygen/70% nitrous oxide anaesthesia and were occluded for 10 minutes using microvascular clamps. Subsequently, both clamps were removed and both arteries were inspected for immediate reperfusion. During the operation and the following 3 hours normothermia of the animals (37.5±0.5° C.) was maintained by using a thermostatically controlled heating blanket connected to a rectal thermometer. For control, in sham-operated animals both vertebral arteries were cauterised in pentobarbital anaesthesia and both common carotid arteries were exposed but not clamped under 2% halothane in 30% oxygen/70% nitrous oxide anaesthesia the following day. The wound was treated with lidocaine gel and then sutured. The animals were kept under a heating lamp at 30° C. environmental temperature until they regained consciousness.
Seven groups of animals were investigated: • 1. (n=8) steroid compound, 7β-OH EPIA (0.1 mg/kg, i.v. via tail vein, three injections: 15 minutes prior to the induction of ischaemia, during ischaemia and 5 minutes after reperfusion); • 2. (n=8) steroid compound, 7β-OH EPIA (0.3 mg/kg, i.v. three injections as described in 1.); • 3. (n=8) steroid compound, 7β-OH EPIA (1 mg/kg, i.v., three injections as described in 1.); • 4. (n=8) NBQX (disodium salt, because more water soluble) as reference substance and positive control (TOCRIS, Germany, 30 mg/kg, i.p., three injections as described in 1.); • 5. (n=8) received vehicle (0.9% NaCl, containing 100 μl Ethanol) three injections as described in 1.); • 6. (n=8) ischaemia alone; • 7. (n=8) sham operated controls.
The substances were dissolved in 100 μl ethanol and finally diluted with 0.9% NaCl.
After a survival time of 7 days after ischaemia, all animals were perfusion fixed tanscardially with 4% paraformaldehyde. The brains were then removed carefully and postfixed in the same fixative for 2 hours. After cryoprotection in 30% sucrose, the brains were rapidly frozen in isopentane and stored at −80° C. Twenty-micrometer cryostat sections comprising the hippocampal formation were Nissl stained with toluidine blue or NeuroTrace fluorescence.
The severity of neuronal damage in the hippocampal CA1 region after ischaemia was evaluated by the number of surviving neurons using Nissl staining. The mean number of morphologically intact neurons per 400 μm length was calculated in CA1 region for each group. Cell counting was performed in 3-5 serial sections per animal and 6 times 400 μm CA1 area per section using a light microscope equipped with a 20× objective. The data were statistically analysed by paired Student's t-test. Data were presented as mean±SEM.
Morphological intact hippocampal CA1 neurons were characterised by Nissl staining (toluidine blue and NeuroTrace) with the following criteria: clear shape of a neuronal perikarya, large nucleus with a positive labelled nucleolus, a small cytoplasm zone around the nucleus with positive Nissl staining, indicating the intact rough endoplasmic reticulum with ribosomes and therefore the intact protein synthesis machinery.

The subject of data set [2] is Organotypic hippocampal slice cultures (CA1 cell layer). The experiment in a line: Hypoxic neuronal damage in organotypic hippocampal slice cultures (PI fluorescence in CA1). As to conditions: for effect on hypoxic damage in CA1 (in words): pre-. The data set is classed as cell-based, Wistar rat. Here is the method: Protocol For Studying Hypoxic Neuronal Damage
Organotypic hippocampal slice cultures were prepared using the basic method of Pringle et al (1996, 1997) modified as follows:
Wistar rat pups (8-11 days old) were decapitated and the hippocampus rapidly dissected into ice-cold Gey's balanced salt solution supplemented with 4.5 mg/ml glucose. Slices were separated and plated onto Millicell CM culture inserts (4 per well) and maintained at 37° C./5% CO2 for 14 days. Maintenance medium consisted of 25% heat-inactivated horse serum, 25% Hank's balanced salt solution (HBSS) and 50% minimum essential medium with added Earle's salts (MEM) supplemented with 1 mM glutamine and 4.5 mg/ml glucose. Medium was changed every 3-4 days.
Experimental hypoxia was performed as described previously (Pringle et al., 1996; 1997). Briefly, cultures were transferred to serum free medium (SFM-75% MEM, 25% HBSS supplemented with 1 mM glutamine and 4.5 mg/ml glucose) containing 5 μg/ml of the fluorescent exclusion dye propidium iodide (PI). Cultures were allowed to equilibrate in SFM for 60 minutes prior to imaging. PI fluorescence was detected using a Leica inverted microscope fitted with a rhodamine filter set. Any cultures in which PI fluorescence was detected at this stage were excluded from further study. Hypoxia was induced by transferring cultures to SFM (+PI) which had been saturated with 95% N2/5% CO2. Culture plates (without lids) were then sealed into an airtight chamber in which the atmosphere was saturated with 95% N2/5% CO2 by continuously blowing through gas at 10 liters/minute for ten minutes before being sealed and placed in the incubator for 170 minutes (total time of hypoxia was therefore 180 minutes). At the end of the hypoxic period cultures were returned to normoxic SFM containing PI and placed back in the incubator for 24 hours.
Neuronal damage was assessed as described previously (Pringle et al., 1996; 1997) using either NIH Image 1.60 running on an Apple IIsi computer or OpenLab 2.1 (Improvision) running on a Macintosh G4/400. Images were captured using a monochrome camera and saved onto optical disk for offline analysis. Light transmission images were captured prior to the addition of drugs, and PI fluorescence images recorded at the end of the 24-hour post-hypoxia recovery period. The area of the CA1 cell layer was determined from the transmission image. The area of PI fluorescence in CA1 was measured using the density slice function within NIH Image or OpenLab, and neuronal damage expressed as the percentage of the CA1 in which PI fluorescence was detected above background.
Steroid compounds were prepared by making an initial 1 mg/ml solution in ethanol and further diluting down in SFM. Compounds were added to the cultures for 45 minutes prior to hypoxia, during the hypoxic episode and during the post-hypoxic recovery period. Control experiments consisted of cultures treated with vehicle alone.

The test system of data set [3] is Langendorf perfused male rat hearts. The experiment in a line: Cardioprotective effect in Langendorf perfused rat hearts (regional ischaemia/reperfusion, infarct size). More on the design: species or system Wistar rats. Particulars: 100 nM in perfusate, 30 min regional ischaemia, 120 min reperfusion. Here is the method:
The study was designed to test the potential anti-ischaemic and cardioprotective effect of 7β-OH EPIA in Langendorf perfused male rat hearts. The end point for evaluation of protection in this model is infarct size (protection against lethal injury, cell death). The infarct size model used is based on a standardised ischaemic insult followed by reperfusion. In the current study, treatment was added ex vivo (to the perfusion solution of the isolated heart) for 30 minutes prior to infarction and continued through 30 minutes regional ischaemia (infarction) and 120 minutes of reperfusion. Based on results from pilot studies, a concentration of 100 nM was used and compared to vehicle treated hearts. The drug was dissolved in DMSO (vehicle) and the final concentration of DMSO in the perfusion solution was 1:10^−6.
Animals were housed in the animal department of the University of Tromsø and treated according to the guidelines formulated by the European Convention for the protection of vertebrate animals used for experimental or other purposes. Supply of Wistar rats were from Harland (The Netherlands), and the rats stayed in the animal department for one week before experiments were started. Animal weight was restricted to 240-380 g, and only male hearts were used. This corresponds to age 60-120 days. […]
The perfusion pressure was 100 mm H2O. […] Heart rate was calculated from pressure recordings. […]

Setting [4] is: 30 mg/kg, three injections, 10 min global ischaemia, 7 days survival.
Setting [5] is: Experiment 1, 100 nM, during and post-hypoxia.
Setting [6] is: Experiment 1, 100 nM, present pre-, during and post-hypoxia, control hypoxia 25.5 ± 6.4.

`NS(=O)(=O)c1cccc2c1c([N+](=O)[O-])cc1nc(O)c(O)nc12` [NBQX, 2,3-dihydroxy-6-nitro-7-sulfamoyl-benzo(F)quinoxaline, reference compound]: the “neuroprotection in CA1 pyramidal cells compared to the ischaemia group (in words)” value in data set [1] (30 mg/kg, three injections) is “significant (p=0.03) neuroprotection”. In addition, in data set [1] (setting [4]), the “neuroprotection compared to the ischaemia alone” value is 47.5% and the “protective effect compared to the sham operated animals” value was determined as 68.5%.

For the molecule `C[C@]12CC[C@H](O)C[C@@H]1C[C@H](O)[C@@H]1[C@@H]2CC[C@]2(C)C(=O)CC[C@@H]12` [7βOH-EPIA, 7β-hydroxyepiandrosterone], the “effect on hypoxic damage in CA1 (in words)” value in data set [2] (setting [5]) is reported as “significantly reduced”. Further, the “% Damage in CA1” value in data set [2] (setting [6]) is on record as 9.0 ± 4.7 %; in data set [2] (Experiment 2, 1 nM, control hypoxia 31.9 ± 4.7) it was 20.6 ± 7.2%; in data set [2] (Experiment 2, 10 nM, control hypoxia 31.9 ± 4.7), 11.9 ± 4.7 %; in data set [2] (Experiment 2, 100 nM, control hypoxia 31.9 ± 4.7), 14.3 ± 5.0 %. Moreover, the “neuroprotection against hypoxia (in words)” value was “activity was lost” in data set [2] (Experiment 2, 1 nM); “significantly neuroprotective” in data set [2] (Experiment 2, 10 nM and 100 nM). For the same molecule, the “neuroprotective effect, t-test analysis (in words)” value in data set [1] (0.1 mg/kg (p=0.01) and 0.3 mg/kg (p=0.0008)) is “highly significant neuroprotective effect”. In addition, the “neuroprotective effect on CA1 pyramidal cells compared to the sham operated group” value in data set [1] (0.1 mg/kg i.v., three injections, 10 min global ischaemia, 7 days survival) is 74.8%; in data set [1] (0.3 mg/kg i.v., three injections, 10 min global ischaemia, 7 days survival), 83.9%. For the same molecule, the “neuroprotection of CA1 pyramidal cells (in words)” value in data set [1] (1.0 mg/kg i.v., three injections) is “only a tendency to neuroprotection, but the effect was not significant”. The “behavioural abnormalities of the animals” value in data set [1] (injected i.v. prior, during and after ischaemia) was “never observed any behavioural abnormalities”. Further, the Infarct volume in data set [3] (control 38.9) was determined as 14.1. The “Infarct/risk zone (%)” value in data set [3] (control 46.3) was 14.4+/−1.22% and 14.4%.

For the molecule `C[C@]12CC[C@H](O)CC1=C[C@H](O)[C@@H]1[C@@H]2CC[C@]2(C)C(=O)CC[C@@H]12` [7βOH-DHEA, 7β-hydroxy-DHEA], the “effect on neuronal damage (in words)” value in data set [2] (Experiment 3, 100 nM pre-, during and post-hypoxia) was “a large, highly significant, reduction in neuronal damage”. Besides, the “% Damage in CA1” value in data set [2] (Experiment 3, 100 nM pre-, during and post-hypoxia, control hypoxia 29.0 ± 6.2) amounted to 4.1 ± 1.9 %.

`C[C@]12CC[C@H](O)C[C@@H]1C[C@@H](O)[C@@H]1[C@@H]2CC[C@]2(C)C(=O)CC[C@@H]12` [7αOH-EPIA, 7α-Hydroxy-EPIA]: in data set [2] (setting [5]), the “effect on hypoxic damage in CA1 (in words)” value is recorded as “significantly reduced”. In addition, the “% Damage in CA1” value in data set [2] (setting [6]) came out at 4.0 ± 2.9 %.
